According to ChEMBL document CHEMBL1201862, “PubChem BioAssay data set” (2004):
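Protocol summary: plate cells (96-well), add compound at 5 concentrations, incubate 48 h, interpolate endpoints linearly. The concentration for 50% growth inhibition is given as GI50.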 The source made the active and inactive calls. Rule as the data show it: active = GI50 up to about 1.1 µM and inactive = higher.

What was measured:
Assay in all cases: NCI tumour cell line growth inhibition, 48 h
[1] = test system: OVCAR-3
[2] = test system: RPMI-8226
[3] = test system: U-251
[4] = test system: UACC-257
[5] = test system: HOP-92
[6] = test system: M14
[7] = test system: NCI-H522
[8] = test system: NCI-H226
[9] = test system: K562
[10] = test system: SK-OV-3
[11] = test system: NCI-H460
[12] = test system: KM12
[13] = test system: MOLT-4
[14] = test system: SR
[15] = test system: SK-MEL-28
[16] = test system: A549
[17] = test system: SNB-19
[18] = test system: IGROV-1

Measured: GI50

COc1cc2ccn3c4cc(OC)c(OC)cc4cc3c2cc1OC
inactive: [1] 58.6 µM | [2] 5.6 µM | [3] > 100 µM | [4] > 100 µM | [5] > 100 µM | [6] 63.1 µM | [7] 11.3 µM | [8] > 100 µM | [9] > 100 µM | [10] > 100 µM | [11] > 100 µM | [12] > 100 µM | [13] > 100 µM | [14] > 100 µM | [15] > 100 µM | [16] > 100 µM | [17] > 100 µM

O=[N+]([O-])c1cccc(C2ON2C2CCCCC2)c1 (stereo unspecified)
inactive: [1] 18.5 µM | [2] 2.94 µM | [3] 3.98 µM | [4] 21.6 µM | [5] 45.9 µM | [6] 18.5 µM | [7] 17.4 µM | [9] 14.4 µM | [10] 35.2 µM | [11] 17.5 µM | [12] 8.81 µM | [13] 18.3 µM | [14] 2.4 µM | [15] 36.9 µM | [16] 30.1 µM | [18] 20 µM | [17] 29.1 µM

CCOC(=O)/C(C#N)=C\C=C1/C=CN=C2NCCN21
inactive: [1] > 100 µM | [2] > 100 µM | [3] > 100 µM | [4] > 100 µM | [6] > 100 µM | [7] > 100 µM | [8] > 100 µM | [9] > 100 µM | [10] > 100 µM | [11] > 100 µM | [12] > 100 µM | [13] > 100 µM | [14] > 100 µM | [15] > 100 µM | [16] > 100 µM | [18] > 100 µM | [17] > 100 µM

C(=N\Nc1ccccc1)/c1nc2ccccc2nc1/C=N/Nc1ccccc1
inactive: [1] 16.6 µM | [4] 23 µM | [5] 17.5 µM | [6] 14.7 µM | [7] 16.5 µM | [8] 18 µM | [9] 7.6 µM | [10] 22 µM | [11] 13.9 µM | [12] 13 µM | [13] 13.2 µM | [14] 19.9 µM | [15] 17.5 µM | [16] 14.3 µM | [18] 12.1 µM | [17] 18.9 µM

Cc1cc2c(cc1C)NC(=O)C(NC(=O)/C=C/c1ccccc1)C=N2 (stereo unspecified)
inactive: [1] 20.1 µM | [2] 25.5 µM | [3] 23.9 µM | [4] 24.3 µM | [6] 34 µM | [7] 16.3 µM | [8] 95.3 µM | [9] 22.5 µM | [10] 74.8 µM | [11] 30.8 µM | [12] 19.5 µM | [13] 20.7 µM | [14] 20.8 µM | [15] 72.3 µM | [16] 30.7 µM | [18] 34.8 µM | [17] 64.3 µM

COc1cc(C2C(C(=O)Nc3ccccc3)=C(C)NC(C)=C2C(=O)Nc2ccccc2)ccc1O
inactive: [1] 23 µM | [2] 26.4 µM | [3] 48.9 µM | [4] 61.9 µM | [5] 19.3 µM | [7] > 10 µM | [8] 49.3 µM | [9] 30.6 µM | [11] 43.7 µM | [12] 31 µM | [13] 27.4 µM | [14] 25.9 µM | [15] 46.7 µM | [16] 40.6 µM | [18] 37 µM | [17] 33.7 µM

CN(C)c1ccc(-c2cc(O)c3cc4c(cc3n2)OCO4)cc1
inactive: [1] > 100 µM | [2] > 100 µM | [3] > 100 µM | [4] > 100 µM | [6] > 100 µM | [8] > 100 µM | [9] > 100 µM | [11] > 100 µM | [13] > 100 µM | [14] > 100 µM | [15] > 100 µM | [16] > 100 µM | [18] > 100 µM | [17] > 100 µM

C=CCC1(CC)C(=O)NC(=O)NC1=O [ETALLOBARBITAL]
inactive: [1] > 100 µM | [2] > 100 µM | [3] > 100 µM | [4] > 100 µM | [6] > 100 µM | [7] > 100 µM | [8] > 100 µM | [9] > 100 µM | [10] > 100 µM | [11] > 100 µM | [12] > 100 µM | [13] > 100 µM | [14] > 100 µM | [15] > 100 µM | [16] > 100 µM | [18] > 100 µM | [17] > 100 µM
